Results taken from BindingDB's records for doi:10.1021/jm8005838 (Cephalon, 2008).

Target: Vascular endothelial growth factor receptor 2 (Homo sapiens, UniProt P35968)
Experiment: VEGF-R2 Receptor-Linked Tyrosine Kinase Assay
Description: Compounds were evaluated for their ability to inhibit the kinase activity using an ELISA-based assay. The 96-well microtiter plate is coated with substrate solution. The reaction is initiated by adding recombinant human VEGF-R2 to reaction mixture containing inhibitor compound. After the incubation, the detection antibody, Eu-N1 antiphosphotyrosine (PT66) antibody, was added, and the fluorescence of the resulting solution was measured using the Victor Multilabel Counter.

Chain of Vascular endothelial growth factor receptor 2 (P35968 whole entry): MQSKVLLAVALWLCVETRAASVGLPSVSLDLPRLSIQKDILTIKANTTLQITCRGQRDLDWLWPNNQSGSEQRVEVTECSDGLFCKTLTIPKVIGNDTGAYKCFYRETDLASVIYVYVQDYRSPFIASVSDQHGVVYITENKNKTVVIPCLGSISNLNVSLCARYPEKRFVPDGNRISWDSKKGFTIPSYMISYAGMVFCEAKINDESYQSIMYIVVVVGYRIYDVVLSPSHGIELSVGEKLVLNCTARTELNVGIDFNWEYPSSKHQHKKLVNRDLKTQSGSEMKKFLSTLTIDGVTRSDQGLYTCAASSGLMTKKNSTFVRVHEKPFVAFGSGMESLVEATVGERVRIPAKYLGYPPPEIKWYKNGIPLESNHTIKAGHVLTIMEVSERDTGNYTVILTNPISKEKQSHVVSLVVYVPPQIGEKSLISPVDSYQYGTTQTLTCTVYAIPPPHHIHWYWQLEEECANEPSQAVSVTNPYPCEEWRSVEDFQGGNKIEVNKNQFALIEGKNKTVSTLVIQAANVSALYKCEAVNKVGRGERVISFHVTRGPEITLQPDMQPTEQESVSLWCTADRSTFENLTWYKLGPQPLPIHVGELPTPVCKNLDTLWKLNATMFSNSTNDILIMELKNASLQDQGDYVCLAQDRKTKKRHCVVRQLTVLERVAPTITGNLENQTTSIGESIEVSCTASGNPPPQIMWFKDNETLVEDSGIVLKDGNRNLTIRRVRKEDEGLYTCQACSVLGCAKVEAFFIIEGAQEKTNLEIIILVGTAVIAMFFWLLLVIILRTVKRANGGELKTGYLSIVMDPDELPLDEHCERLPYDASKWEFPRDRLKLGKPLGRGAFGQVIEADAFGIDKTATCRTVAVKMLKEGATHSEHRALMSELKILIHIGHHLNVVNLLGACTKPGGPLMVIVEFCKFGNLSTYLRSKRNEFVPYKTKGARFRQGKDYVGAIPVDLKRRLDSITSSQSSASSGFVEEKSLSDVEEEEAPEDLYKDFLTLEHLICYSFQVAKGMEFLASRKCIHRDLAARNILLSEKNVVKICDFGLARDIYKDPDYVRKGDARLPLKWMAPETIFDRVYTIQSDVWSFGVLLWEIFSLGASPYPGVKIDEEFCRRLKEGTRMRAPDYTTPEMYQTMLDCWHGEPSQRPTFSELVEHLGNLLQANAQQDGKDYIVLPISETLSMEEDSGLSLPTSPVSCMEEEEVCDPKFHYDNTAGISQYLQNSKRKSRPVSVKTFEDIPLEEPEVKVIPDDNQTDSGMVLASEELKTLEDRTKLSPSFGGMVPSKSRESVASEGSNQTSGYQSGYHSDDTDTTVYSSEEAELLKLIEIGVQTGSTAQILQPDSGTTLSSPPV

Structure (SMILES): CC(C)Oc1ccc2c(c1)CCc1c-2c2c(c3c4ccccc4n(CCO)c13)CNC2=O [3-(2-hydroxyethyl)-20-(propan-2-yloxy)-3,13-diazahexacyclo[14.8.0.0^{2,10}.0^{4,9}.0^{11,15}.0^{17,22}]tetracosa-1(16),2(10),4(9),5,7,11(15),17(22),18,20-nonaen-14-one]
- IC50: 3.38 µM

Structure (SMILES): COc1ccc2c(c1)CCc1c-2c2c(c3c4ccccc4n(CCO)c13)CNC2=O [3-(2-hydroxyethyl)-20-methoxy-3,13-diazahexacyclo[14.8.0.0^{2,10}.0^{4,9}.0^{11,15}.0^{17,22}]tetracosa-1(16),2(10),4(9),5,7,11(15),17(22),18,20-nonaen-14-one]
- IC50: 4.72 µM
